Measured values taken from US10550165B2, “Peptide for inducing regeneration of tissue and use thereof” (STEMRIM INC., priority 2011, dated 2020).

Test system: mouse bone marrow mesenchymal stem cell line (MSC-1 cells), PDGFRα-positive
Assay: Migration assay (Boyden / 48-well chemotaxis chamber) on bone marrow mesenchymal stem cell line MSC-1
Format: cell-based
Settings: 2 μM, area of migrated cells by image analysis, FIG. 10
Experimental: Cells of a mouse bone marrow mesenchymal stem cell line (MSC-1 cells, established by Tamai et al. of Osaka University (PDGFRα-positive cells in bone marrow are mobilized by high mobility group box 1 (HMGB1) to regenerate injured epithelia. (Tamai et al., Proc Natl Acad Sci USA. Apr. 4, 2011))) were detached from dishes using trypsin, and collected by centrifugation at 1200 rpm and 4° C. for 10 minutes. The resulting pellet was loosened and suspended at a cell concentration of 2.0×10^6 to 3.0×10^6 cells/ml by adding Dulbecco's Modified Eagle Medium (D-MEM) containing 10% fetal bovine serum (FBS). The recombinant protein and peptides produced in HEK293 were diluted with D-MEM containing 10% FBS. The negative control used was phosphate buffered saline (PBS). An acrylic Boyden chamber was used; cells of the mouse bone marrow mesenchymal stem cell line prepared at a cell concentration of 3×10^6 cells/ml were placed in its upper layer, while a diluted protein or peptide is added to the bottom layer. More specifically, a 28 μl aliquot of a protein or peptide solution was added to each well of the bottom plate of a 48-well chemotaxis chamber (NEURO PROBE 48WELL CHEMOTAXIS CHAMBER), and a polycarbonate membrane with 8 μm pores (Neuro Probe, Inc, Cat: 866-417-0014) was placed on the bottom plate. Then, an upper plate was placed on the membrane and screwed tightly. 50 μl of cells of the mouse bone marrow mesenchymal stem cell line after concentration adjustment were added to the upper plate wells. The chamber was placed in an incubator under 5% CO2 at 37° C. After four hours, the membrane was removed from the chamber and stained with Diff-Quik (Sysmex, Cat: 16920) to detect cells that migrated through membrane pores to the lower compartment.
The peptides listed below were custom synthesized using the solid phase method by Medical & Biological Laboratories (MBL). The peptides were synthesized based on the mouse HMGB1 sequence (SEQ ID NO: 3). Synthetic peptides described in subsequent Examples were also prepared based on the mouse HMGB1 sequence. • A synthetic peptide consisting of the amino acid sequence from positions 1 to 10 of HMGB1 (1-10); • a synthetic peptide consisting of the amino acid sequence from positions 1 to 34 of HMGB1 (1-34); • a synthetic peptide consisting of the amino acid sequence from positions 37 to 62 of HMGB1 (37-62); • a synthetic peptide consisting of the amino acid sequence from positions 27 to 62 of HMGB1 (27-62); • a synthetic peptide consisting of the amino acid sequence from positions 56 to 72 of HMGB1 (56-72); • a synthetic peptide consisting of the amino acid sequence from positions 11 to 20 of HMGB1 (11-20); • a synthetic peptide consisting of the amino acid sequence from positions 11 to 25 of HMGB1 (11-25); • a synthetic peptide consisting of the amino acid sequence from positions 11 to 30 of HMGB1 (11-30); • a synthetic peptide consisting of the amino acid sequence from positions 11 to 34 of HMGB1 (11-34); • a synthetic peptide consisting of the amino acid sequence from positions 11 to 44 of HMGB1 (11-44); • a synthetic peptide consisting of the amino acid sequence from positions 17 to 44 of HMGB1 (17-44); • a synthetic peptide consisting of the amino acid sequence from positions 1 to 25 of HMGB1 (1-25); and the whole mouse HMGB1 produced in HEK293 (1-215(HEK)) as a positive control were adjusted to 100 μg/ml and placed in the lower layer of a chemotaxis chamber to assess the migration-promoting activity on bone marrow mesenchymal stem cell line (MSC-1). Results
As positive controls, centrifuged supernatant of the skin of a one-day-old mouse (one individual) incubated in PBS at 4° C. for 12 hours, and the whole mouse HMGB1 (HMGB1(HEK_1-215)) produced in HEK293 were used. […]

| Substance | migration-promoting activity relative to the full-length HMGB1, compared per equal mass | migration-promoting activity relative to the full-length HMGB1, compared per equal mole |
| --- | --- | --- |
| peptide (1-44) produced in E. coli: amino acids of positions 1 to 44 of mouse HMGB1 produced using E. coli, tag removed by HRV3C (MGKGDPKKPRGKMSSYAFFVQTCREEHKKKHPDASVNFSEFSKK; UniProt P63158 1-44, looked up, fragment) | about 8 times | about 1.6 times |

Same assay, conditions: peptides produced using HEK293, concentration not stated

| Substance | activity of promoting the migration of MSC-1 |
| --- | --- |
| 1-47: peptide comprising the amino acid sequence of positions 1 to 47, produced using HEK293 (MGKGDPKKPRGKMSSYAFFVQTCREEHKKKHPDASVNFSEFSKKCSE; UniProt P63158 1-47, looked up, fragment) | showed the activity of promoting the migration of bone marrow mesenchymal stem line MSC-1 |
| 1-49: peptide comprising the amino acid sequence of positions 1 to 49, produced using HEK293 (MGKGDPKKPRGKMSSYAFFVQTCREEHKKKHPDASVNFSEFSKKCSERW; UniProt P09429 1-49, looked up, fragment) | showed the activity of promoting the migration of bone marrow mesenchymal stem line MSC-1 |
| 1-42: peptide comprising the amino acid sequence of positions 1 to 42, produced using HEK293 (MGKGDPKKPRGKMSSYAFFVQTCREEHKKKHPDASVNFSEFS; UniProt P63158 1-42, looked up, fragment) | showed the activity of promoting the migration of bone marrow mesenchymal stem line MSC-1 |
| 1-46: peptide comprising the amino acid sequence of positions 1 to 46, produced using HEK293 (MGKGDPKKPRGKMSSYAFFVQTCREEHKKKHPDASVNFSEFSKKCS; UniProt P63158 1-46, looked up, fragment) | showed the activity of promoting the migration of bone marrow mesenchymal stem line MSC-1 |
| 1-48: peptide comprising the amino acid sequence of positions 1 to 48, produced using HEK293 (MGKGDPKKPRGKMSSYAFFVQTCREEHKKKHPDASVNFSEFSKKCSER; UniProt P09429 1-48, looked up, fragment) | showed the activity of promoting the migration of bone marrow mesenchymal stem line MSC-1 |
| 1-51: peptide comprising the amino acid sequence of positions 1 to 51, produced using HEK293 (MGKGDPKKPRGKMSSYAFFVQTCREEHKKKHPDASVNFSEFSKKCSERWKT; UniProt P09429 1-51, looked up, fragment) | showed the activity of promoting the migration of bone marrow mesenchymal stem line MSC-1 |
| 1-50: peptide comprising the amino acid sequence of positions 1 to 50, produced using HEK293 (MGKGDPKKPRGKMSSYAFFVQTCREEHKKKHPDASVNFSEFSKKCSERWK; UniProt P63158 1-50, looked up, fragment) | showed the activity of promoting the migration of bone marrow mesenchymal stem line MSC-1 |

Same assay, conditions: synthetic peptides, 5 μM, FIGS. 8A and 8B

| Substance | migration-promoting activity |
| --- | --- |
| (11-29): synthetic peptide consisting of the amino acid sequence from positions 11 to 29 of HMGB1 (GKMSSYAFFVQTCREEHKK; UniProt P09429 11-29, looked up, fragment) | strong migration-promoting activity |
| (10-25): synthetic peptide consisting of the amino acid sequence from positions 10 to 25 of HMGB1 (RGKMSSYAFFVQTCRE; UniProt P09429 10-25, looked up, fragment) | strong migration-promoting activity |
| (16-30): synthetic peptide consisting of the amino acid sequence from positions 16 to 30 of HMGB1 (YAFFVQTCREEHKKK; UniProt P09429 16-30, looked up, fragment) | weak activity |
| (15-25): synthetic peptide consisting of the amino acid sequence from positions 15 to 25 of HMGB1 (SYAFFVQTCRE; UniProt P09429 15-25, looked up, fragment) | weak activity |
| (11-28): synthetic peptide consisting of the amino acid sequence from positions 11 to 28 of HMGB1 (GKMSSYAFFVQTCREEHK; UniProt P09429 11-28, looked up, fragment) | strong migration-promoting activity |
| (16-25): synthetic peptide consisting of the amino acid sequence from positions 16 to 25 of HMGB1 (YAFFVQTCRE; UniProt P09429 16-25, looked up, fragment) | weak activity |
| (13-30): synthetic peptide consisting of the amino acid sequence from positions 13 to 30 of HMGB1 (MSSYAFFVQTCREEHKKK; UniProt P09429 13-30, looked up, fragment) | strong migration-promoting activity |
| (11-25): synthetic peptide consisting of the amino acid sequence from positions 11 to 25 of HMGB1 (GKMSSYAFFVQTCRE; UniProt P09429 11-25, looked up, fragment) | weak activity |
| (12-30): synthetic peptide consisting of the amino acid sequence from positions 12 to 30 of HMGB1 (KMSSYAFFVQTCREEHKKK; UniProt P09429 12-30, looked up, fragment) | strong migration-promoting activity |
| (11-27): synthetic peptide consisting of the amino acid sequence from positions 11 to 27 of HMGB1 (GKMSSYAFFVQTCREEH; UniProt P09429 11-27, looked up, fragment) | strong migration-promoting activity |

Same assay, conditions: synthetic peptides, 10 μM and 5 μM, FIG. 9

| Substance | migration-promoting activity |
| --- | --- |
| (45-74): synthetic peptide consisting of the amino acids of positions 45 to 74 (CSERWKTMSAKEKGKFEDMAKADKARYERE; UniProt P09429 45-74, looked up, fragment) | exhibited migration-promoting activity which was however weaker as compared to synthetic peptides (1-44) and (1-34) |

Same assay, conditions: synthetic peptides, 100 μg/ml, positive control 1-215(HEK), FIG. 7

| Substance | migration-promoting activity |
| --- | --- |
| (1-25): synthetic peptide consisting of the amino acid sequence from positions 1 to 25 of HMGB1 (MGKGDPKKPRGKMSSYAFFVQTCRE; UniProt P09429 1-25, looked up, fragment) | found to have the activity |
| (11-25): synthetic peptide consisting of the amino acid sequence from positions 11 to 25 of HMGB1 (GKMSSYAFFVQTCRE; UniProt P09429 11-25, looked up, fragment) | found to have the activity |
| (11-44): synthetic peptide consisting of the amino acid sequence from positions 11 to 44 of HMGB1 (GKMSSYAFFVQTCREEHKKKHPDASVNFSEFSKK; UniProt P09429 11-44, looked up, fragment) | activity comparable to or higher than that of the positive control |
